ChEMBL document CHEMBL1201862, “PubChem BioAssay data set” (2004)
Counter-ions that a name gives are not always drawn. Calls of active or inactive are those of the source.

Key:
[1] = biological target: T1, Zinc finger protein mex-5 (Caenorhabditis elegans, UniProt Q9XUB2); assay: MEX-5/TCR-2 RNA interaction inhibitors, dose response, biochemical, C. elegans, fluorescence polarization (AID 1960)
T1 sequence (Q9XUB2 whole entry): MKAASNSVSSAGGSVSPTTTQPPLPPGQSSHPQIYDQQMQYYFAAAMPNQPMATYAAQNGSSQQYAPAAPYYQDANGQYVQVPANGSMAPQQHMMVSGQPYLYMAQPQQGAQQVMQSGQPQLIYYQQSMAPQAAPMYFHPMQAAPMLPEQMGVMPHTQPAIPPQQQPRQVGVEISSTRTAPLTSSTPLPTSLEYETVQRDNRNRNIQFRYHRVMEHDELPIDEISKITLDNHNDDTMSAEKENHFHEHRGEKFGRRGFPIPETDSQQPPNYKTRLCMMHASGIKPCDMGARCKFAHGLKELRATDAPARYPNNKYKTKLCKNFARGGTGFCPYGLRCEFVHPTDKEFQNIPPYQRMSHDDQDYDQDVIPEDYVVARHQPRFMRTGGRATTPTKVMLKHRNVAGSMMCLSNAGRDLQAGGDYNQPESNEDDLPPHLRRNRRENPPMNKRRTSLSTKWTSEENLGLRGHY

[2] = biological target: T2, RNA-binding protein pos-1 (Caenorhabditis elegans, UniProt G5EF15); assay: inhibitors of POS-1/mex-3 RNA binding, dose response, biochemical, fluorescence polarization (AID 1964);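 note: purified POS-1 fused to maltose binding protein made in E. coli; potency of compounds blocking POS-1 binding to fluorescent RNA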
T2 sequence (G5EF15 whole entry): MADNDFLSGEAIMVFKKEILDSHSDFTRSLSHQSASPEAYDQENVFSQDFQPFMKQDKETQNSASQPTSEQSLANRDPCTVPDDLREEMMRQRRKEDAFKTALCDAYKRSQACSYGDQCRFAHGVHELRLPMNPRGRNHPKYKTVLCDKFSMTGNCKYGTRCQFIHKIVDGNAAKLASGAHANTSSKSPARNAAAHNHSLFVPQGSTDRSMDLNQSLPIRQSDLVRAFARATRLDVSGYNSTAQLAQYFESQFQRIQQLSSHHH

[3] = biological target: T3, Endoribonuclease toxin MazF (Escherichia coli K-12, UniProt P0AE70); assay: fluorescent RNA oligo signal without MazF, dose response, counter-screen for MazEF activator project, biochemical, fluorescence, single-stranded RNase substrate (AID 588502); type: functional
T3 sequence (P0AE70 whole entry): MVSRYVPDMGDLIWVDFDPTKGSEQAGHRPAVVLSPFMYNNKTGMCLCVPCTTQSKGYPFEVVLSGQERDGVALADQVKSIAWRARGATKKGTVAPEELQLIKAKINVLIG

[4] = biological target: T3, Endoribonuclease toxin MazF; assay: MazF toxin RNase activators, dose response, biochemical, fluorescence, single-stranded RNA substrate, uHTS hits (AID 588481); type: functional
[5] = biological target: 26S proteasome non-ATPase regulatory subunit 14 (Homo sapiens, UniProt O00487); assay: inhibition of proteasome subunit RPN11 – biochemical, fluorescence polarization, uHTS hits, confirmation (AID 602368); type: functional
Prothrombin = Prothrombin (Bos taurus, UniProt P00735); assay: thrombin inhibition, dose response, biochemical, fluorescence polarization, uHTS hits (AID 602369); type: functional
cells = type: functional, cell-based
[6] = biological target: T4, Nuclear receptor subfamily 0 group B member 1 (Homo sapiens, UniProt P51843); type: functional, cell-based;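 note: HEK293T cells transfected with SF-1 and DAX-1 plus StAR promoter luciferase reporter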
T4 sequence (P51843 whole entry): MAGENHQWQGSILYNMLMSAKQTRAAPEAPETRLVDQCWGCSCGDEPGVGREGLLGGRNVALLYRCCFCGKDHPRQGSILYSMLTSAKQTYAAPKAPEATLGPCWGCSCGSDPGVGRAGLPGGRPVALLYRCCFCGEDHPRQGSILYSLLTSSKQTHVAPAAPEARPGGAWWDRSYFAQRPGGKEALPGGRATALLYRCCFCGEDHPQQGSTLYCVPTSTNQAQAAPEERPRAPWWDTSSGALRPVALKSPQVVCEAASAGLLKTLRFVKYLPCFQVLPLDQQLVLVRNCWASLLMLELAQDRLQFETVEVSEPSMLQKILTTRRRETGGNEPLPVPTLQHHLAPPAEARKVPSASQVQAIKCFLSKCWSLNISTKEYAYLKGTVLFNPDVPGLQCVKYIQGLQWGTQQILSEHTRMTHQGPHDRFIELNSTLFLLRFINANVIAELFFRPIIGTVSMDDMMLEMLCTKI

HEK293 = assay: inhibitors of LMP1-driven NF-kB reporter, dose response, cell-based, HEK293, luciferase, cherry-pick (AID 588343); type: functional; details: Homo sapiens
[7] = biological target: 72 kDa type IV collagenase (Homo sapiens, UniProt P08253); assay: Dose Response validation of uHTS RPN11 inhibitor hits using a MMP-2 Fluorescence assay.; type: functional
[8] = biological target: Luciferin 4-monooxygenase (Photinus pyralis, UniProt P08659); assay: firefly luciferase enzyme inhibitors, dose response, biochemical, luminescence (AID 1891)
INS1 = assay: beta cell apoptosis inhibitors, cytokine rescue, dose response, luminescence, retest (AID 449756); type: functional, cell-based; details: Rattus norvegicus;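 note: cell death triggered by IL-1 beta plus TNF-alpha plus IFN-gamma mixture; protective hits raise ATP signal compared with cytokine alone wells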
[9] = Luminescence Cell-Based Dose Confirmation HTS to Identify Inhibitors of Platelet Dense Granule Release. [Related pubchem assays: 1663 (Primary HTS), 1678 (Summary of Project)]; type: functional
[10] = growth suppression of PTEN-null colon cells, dose response, cell-based, HCT116 PTEN knockout (AID 1047); type: functional;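 note: HCT116 colon tumor cells with PTEN knocked out; cells exposed to compound for 60 hours before readout; potency for loss of cell viability measured by luminescence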
Melanocortin receptor 4 = Melanocortin receptor 4 (Homo sapiens, UniProt P32245); type: functional, cell-based;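 note: Cell-based assay with luminescence read-out, confirmatory dose-response testing for agonist activity of biased ligands at MC4R; human U2OS cells with tagged receptor and beta-arrestin; potency of agonists that increase receptor coupling to beta-arrestin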
[11] = growth suppression of beta-catenin-knockout colon cells, dose response, cell-based, HCT116, human colon tumor (AID 1045); type: functional;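 note: HCT116 colon tumor cells with beta catenin knocked out; cells exposed to compound for 60 hours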
[12] = biological target: T5, Sentrin-specific protease 7 (Homo sapiens, UniProt Q9BQF6); assay: SENP7 protease inhibitors, SAR follow-up, biochemical, luminescence (AID 504497); type: functional
T5 sequence (Q9BQF6 whole entry): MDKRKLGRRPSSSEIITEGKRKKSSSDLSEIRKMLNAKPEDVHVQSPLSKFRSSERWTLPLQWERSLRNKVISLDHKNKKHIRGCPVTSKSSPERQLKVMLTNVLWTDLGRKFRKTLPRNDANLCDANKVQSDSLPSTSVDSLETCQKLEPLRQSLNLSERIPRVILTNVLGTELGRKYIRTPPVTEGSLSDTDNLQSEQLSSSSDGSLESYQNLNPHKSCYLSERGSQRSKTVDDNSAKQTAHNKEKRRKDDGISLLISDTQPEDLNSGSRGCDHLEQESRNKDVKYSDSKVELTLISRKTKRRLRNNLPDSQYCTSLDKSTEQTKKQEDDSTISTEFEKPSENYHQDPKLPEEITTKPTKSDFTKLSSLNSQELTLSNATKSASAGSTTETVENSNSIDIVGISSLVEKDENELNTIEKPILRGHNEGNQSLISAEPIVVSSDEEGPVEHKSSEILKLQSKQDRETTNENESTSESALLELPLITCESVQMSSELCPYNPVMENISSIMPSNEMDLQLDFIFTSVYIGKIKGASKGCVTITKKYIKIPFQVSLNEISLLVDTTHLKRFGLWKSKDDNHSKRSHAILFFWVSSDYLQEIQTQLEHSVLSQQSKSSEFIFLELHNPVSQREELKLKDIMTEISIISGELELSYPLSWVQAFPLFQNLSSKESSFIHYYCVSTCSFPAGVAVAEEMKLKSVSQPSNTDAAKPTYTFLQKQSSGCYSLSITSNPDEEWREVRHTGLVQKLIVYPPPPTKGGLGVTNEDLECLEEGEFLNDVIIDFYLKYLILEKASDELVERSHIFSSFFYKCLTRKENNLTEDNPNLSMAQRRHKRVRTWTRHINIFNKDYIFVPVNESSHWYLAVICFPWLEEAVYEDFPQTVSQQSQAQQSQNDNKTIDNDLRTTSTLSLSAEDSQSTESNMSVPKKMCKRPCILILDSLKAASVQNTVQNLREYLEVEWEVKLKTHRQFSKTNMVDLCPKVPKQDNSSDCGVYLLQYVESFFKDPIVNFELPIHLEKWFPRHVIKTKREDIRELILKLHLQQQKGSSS

Caspase-3 = biological target: T6, Caspase-3 (Homo sapiens, UniProt P42574); assay: SAR Analysis of small molecule inhibitors of Sentrin-specific proteases (SENPs) using a Caspase-3 Selectivity assay. [Related pubchem assays (depositor defined):AID2540, AID2599, AID434973, AID489001]; type: functional
T6 sequence (P42574 whole entry): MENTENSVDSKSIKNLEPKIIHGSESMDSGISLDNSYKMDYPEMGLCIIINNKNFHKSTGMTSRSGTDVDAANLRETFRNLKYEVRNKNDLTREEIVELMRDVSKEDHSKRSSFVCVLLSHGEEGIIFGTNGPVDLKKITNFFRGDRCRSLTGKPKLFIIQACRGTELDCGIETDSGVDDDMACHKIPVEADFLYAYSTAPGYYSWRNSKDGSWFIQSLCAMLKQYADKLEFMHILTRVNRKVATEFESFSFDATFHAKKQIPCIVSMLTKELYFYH

[13] = biological target: T7, Sentrin-specific protease 6 (Homo sapiens, UniProt Q9GZR1); assay: SAR Analysis of small molecule inhibitors of Sentrin-specific protease 6 (SENP6) using a Luminescent assay. [Related pubchem assays (depositor defined):AID2582, AID2599]; type: functional
T7 sequence (Q9GZR1 whole entry): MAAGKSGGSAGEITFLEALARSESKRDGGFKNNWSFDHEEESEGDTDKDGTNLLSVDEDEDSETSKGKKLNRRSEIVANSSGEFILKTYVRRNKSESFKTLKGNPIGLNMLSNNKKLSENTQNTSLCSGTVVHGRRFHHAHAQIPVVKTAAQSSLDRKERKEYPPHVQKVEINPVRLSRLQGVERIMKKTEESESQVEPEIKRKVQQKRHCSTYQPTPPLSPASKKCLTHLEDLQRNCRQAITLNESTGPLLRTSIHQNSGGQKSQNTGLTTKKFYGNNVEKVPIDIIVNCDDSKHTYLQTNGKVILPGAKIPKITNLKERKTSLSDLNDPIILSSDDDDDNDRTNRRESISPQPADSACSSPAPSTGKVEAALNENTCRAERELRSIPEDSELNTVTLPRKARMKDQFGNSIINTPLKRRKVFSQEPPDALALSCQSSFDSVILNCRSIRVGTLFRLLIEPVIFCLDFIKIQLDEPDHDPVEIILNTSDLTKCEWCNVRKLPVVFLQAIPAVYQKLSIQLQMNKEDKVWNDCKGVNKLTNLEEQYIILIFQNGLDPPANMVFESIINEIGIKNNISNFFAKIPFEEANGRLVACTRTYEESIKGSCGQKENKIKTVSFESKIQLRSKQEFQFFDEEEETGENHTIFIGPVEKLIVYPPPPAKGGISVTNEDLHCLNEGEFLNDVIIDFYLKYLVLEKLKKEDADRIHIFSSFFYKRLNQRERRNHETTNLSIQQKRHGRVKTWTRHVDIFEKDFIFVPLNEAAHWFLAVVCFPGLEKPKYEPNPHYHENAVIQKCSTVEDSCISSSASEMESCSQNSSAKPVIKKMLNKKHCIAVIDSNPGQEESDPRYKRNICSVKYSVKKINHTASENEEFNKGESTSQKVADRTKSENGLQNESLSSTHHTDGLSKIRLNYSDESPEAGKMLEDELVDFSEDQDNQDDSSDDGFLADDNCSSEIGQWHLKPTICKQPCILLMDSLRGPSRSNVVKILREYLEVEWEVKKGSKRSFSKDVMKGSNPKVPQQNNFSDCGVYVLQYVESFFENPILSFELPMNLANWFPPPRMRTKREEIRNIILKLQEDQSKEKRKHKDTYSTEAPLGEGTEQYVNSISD

[14] = biological target: T8, Sentrin-specific protease 8 (Homo sapiens, UniProt Q96LD8); assay: SENP8 protease inhibitors, SAR follow-up, biochemical, luminescence (AID 504501); type: functional
T8 sequence (Q96LD8 whole entry): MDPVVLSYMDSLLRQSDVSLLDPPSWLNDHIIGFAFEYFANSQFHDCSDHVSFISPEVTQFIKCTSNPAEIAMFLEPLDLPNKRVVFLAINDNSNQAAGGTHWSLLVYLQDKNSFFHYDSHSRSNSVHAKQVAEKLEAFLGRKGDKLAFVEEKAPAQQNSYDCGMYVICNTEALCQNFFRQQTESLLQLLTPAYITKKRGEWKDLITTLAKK

Vero = Vero cell cytotoxicity, cytotoxicity control for flavivirus capping enzyme inhibitors (AID 588742); type: functional; details: Chlorocebus sabaeus

Sequence of 26S proteasome non-ATPase regulatory subunit 14 (O00487 whole entry): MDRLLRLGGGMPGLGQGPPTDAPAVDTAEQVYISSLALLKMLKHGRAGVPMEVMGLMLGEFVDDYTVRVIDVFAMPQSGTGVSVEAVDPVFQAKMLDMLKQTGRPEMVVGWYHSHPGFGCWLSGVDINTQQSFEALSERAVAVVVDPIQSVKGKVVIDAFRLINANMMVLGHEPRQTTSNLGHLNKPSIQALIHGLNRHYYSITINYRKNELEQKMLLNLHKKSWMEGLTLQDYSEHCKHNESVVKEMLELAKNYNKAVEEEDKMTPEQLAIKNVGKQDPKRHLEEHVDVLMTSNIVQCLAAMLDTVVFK
Sequence of Melanocortin receptor 4 (P32245 whole entry): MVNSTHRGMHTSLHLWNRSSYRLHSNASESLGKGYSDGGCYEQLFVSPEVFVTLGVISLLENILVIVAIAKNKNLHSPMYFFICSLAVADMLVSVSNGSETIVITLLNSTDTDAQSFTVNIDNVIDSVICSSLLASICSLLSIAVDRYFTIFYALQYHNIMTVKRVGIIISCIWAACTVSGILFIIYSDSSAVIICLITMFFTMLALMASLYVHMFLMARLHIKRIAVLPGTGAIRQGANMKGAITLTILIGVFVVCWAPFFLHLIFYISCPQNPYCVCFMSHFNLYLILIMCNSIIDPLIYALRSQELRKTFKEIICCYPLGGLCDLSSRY
Sequence of 72 kDa type IV collagenase (P08253 whole entry): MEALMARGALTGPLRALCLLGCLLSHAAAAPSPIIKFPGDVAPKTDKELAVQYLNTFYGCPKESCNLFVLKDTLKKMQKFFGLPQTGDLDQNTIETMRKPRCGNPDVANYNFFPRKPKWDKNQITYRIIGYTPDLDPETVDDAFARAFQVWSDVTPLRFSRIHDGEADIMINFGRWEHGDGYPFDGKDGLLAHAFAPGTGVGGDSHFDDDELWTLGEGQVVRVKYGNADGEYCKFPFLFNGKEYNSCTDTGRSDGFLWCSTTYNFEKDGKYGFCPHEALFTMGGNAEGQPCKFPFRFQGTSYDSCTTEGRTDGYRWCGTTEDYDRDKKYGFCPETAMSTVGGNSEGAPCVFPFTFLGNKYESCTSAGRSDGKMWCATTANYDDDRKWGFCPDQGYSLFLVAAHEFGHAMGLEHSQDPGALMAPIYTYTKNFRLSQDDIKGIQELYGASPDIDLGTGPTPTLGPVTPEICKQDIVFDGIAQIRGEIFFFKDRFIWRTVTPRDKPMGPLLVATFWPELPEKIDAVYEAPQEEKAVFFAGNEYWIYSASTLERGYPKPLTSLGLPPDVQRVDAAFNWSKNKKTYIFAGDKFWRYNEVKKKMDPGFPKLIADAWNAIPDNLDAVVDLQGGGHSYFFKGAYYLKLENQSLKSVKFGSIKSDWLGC
Sequence of Luciferin 4-monooxygenase (P08659 whole entry): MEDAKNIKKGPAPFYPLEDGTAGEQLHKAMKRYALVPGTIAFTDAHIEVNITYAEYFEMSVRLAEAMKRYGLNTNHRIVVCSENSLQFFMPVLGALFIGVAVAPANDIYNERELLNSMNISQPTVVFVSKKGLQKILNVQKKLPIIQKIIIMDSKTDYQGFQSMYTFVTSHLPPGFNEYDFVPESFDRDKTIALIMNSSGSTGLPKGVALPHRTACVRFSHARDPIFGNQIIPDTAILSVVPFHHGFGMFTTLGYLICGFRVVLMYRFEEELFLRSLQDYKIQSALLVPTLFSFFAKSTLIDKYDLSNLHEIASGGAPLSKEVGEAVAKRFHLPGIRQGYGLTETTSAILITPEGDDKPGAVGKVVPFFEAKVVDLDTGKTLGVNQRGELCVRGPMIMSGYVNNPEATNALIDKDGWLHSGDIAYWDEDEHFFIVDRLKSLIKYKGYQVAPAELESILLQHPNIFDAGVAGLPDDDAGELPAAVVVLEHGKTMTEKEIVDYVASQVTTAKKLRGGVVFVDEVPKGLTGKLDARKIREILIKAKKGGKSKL

## COc1ccc2c(c1)c1nc3ccccc3nc1n2CCCN1C(=O)c2ccccc2C1=O
[1]
  EC50: 73.9 µM (inconclusive)
[2]
  EC50: 32.7 µM (active)
[3]
  EC50: > 99 µM (inactive)
[4]
  EC50: > 99 µM (inactive)

## Cc1ccsc1/C=C/c1ccc2ccccc2n1
[5]
  IC50: 23.4 µM (active)
Prothrombin
  IC50: 29.3 µM (active)
cells
  IC50: > 67.5 µM (inactive)
[6]
  IC50: > 0.278 µM (active)
HEK293
  AC50: 15.8 µM (active)
[7]
  IC50: > 100 µM (inactive)

## CCC(C)c1ccc(NC(S)=NC2CCN(Cc3ccccc3)CC2)cc1 (stereo not given)
[8]
  EC50: > 112 µM (not active)
INS1
  AC50: 6.84 µM (active)
[9]
  EC50: > 112 µM (not active)
[10]
  EC50: 13.5 µM (active)
Melanocortin receptor 4
  EC50: > 9.91 µM (active)
[11]
  EC50: 14.2 µM (active)

## CCc1cccc2c(C(=O)CN3C(=O)c4ccccc4C3=O)c[nH]c12
[12]
  IC50: > 99 µM (inactive)
Caspase-3
  IC50: > 99 µM (inactive)
[13]
  IC50: > 99 µM (inactive)
[14]
  IC50: > 99 µM (inactive)

## O=[N+]([O-])c1ccc(-c2nc(/C=C/c3ccc(F)cc3)no2)cc1
[12]
  IC50: > 99 µM (inactive)
Caspase-3
  IC50: > 99 µM (inactive)
[13]
  IC50: > 99 µM (inactive)
[14]
  IC50: > 99 µM (inactive)

## CN1CCN(C(c2ccccc2)c2ccc(Cl)cc2)CC1 (stereo not given) [CHLORCYCLIZINE HYDROCHLORIDE]
Vero
  CC50: > 40 µM (active)
